{"source": "patent US9669029B2", "about": "“Heteroaromatic phenylimidazole derivatives as PDE10A enzyme inhibitors” (H. Lundbeck A/S, priority 2009, dated 2017)", "key": {"PDE10A": {"target": "PDE10A (Homo sapiens (Human), UniProt Q9Y233)", "sequence (Q9Y233 716-1055)": "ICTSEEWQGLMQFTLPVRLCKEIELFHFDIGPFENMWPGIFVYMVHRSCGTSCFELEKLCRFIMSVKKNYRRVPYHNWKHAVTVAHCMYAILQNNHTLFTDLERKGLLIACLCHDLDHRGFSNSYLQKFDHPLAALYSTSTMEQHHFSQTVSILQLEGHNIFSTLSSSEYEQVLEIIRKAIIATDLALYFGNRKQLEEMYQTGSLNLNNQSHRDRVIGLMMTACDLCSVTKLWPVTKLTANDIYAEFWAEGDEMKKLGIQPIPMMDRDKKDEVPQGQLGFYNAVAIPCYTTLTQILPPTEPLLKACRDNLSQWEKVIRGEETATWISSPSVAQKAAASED", "assay": "PDE10A inhibition assay", "type": "biochemical", "description": "Active PDE10A enzyme is prepared in a number of ways for use in PDE assays (Loughney, K. et al. Gene 1999, 234, 109-117; Fujishige, K. et al. Eur J Biochem. 1999, 266, 1118-1127 and Soderling, S. et al. Proc. Natl. Acad. Sci. 1999, 96, 7071-7076). PDE10A can be expressed as full-length proteins or as truncated proteins, as long as they express the catalytic domain. PDE10A can be prepared in different cell types, for example insect cells or E. coli. […]\nA PDE10A assay may for example, be performed as follows: The assay is performed in 60 uL samples containing a fixed amount of the relevant PDE enzyme (sufficient to convert 20-25% of the cyclic nucleotide substrate), a buffer (50 mM HEPES7.6; 10 mM MgCl2; 0.02% Tween20), 0.1 mg/ml BSA, 225 pCi of ^3H-labelled cyclic nucleotide substrate, tritium labeled cAMP to a final concentration of 5 nM and varying amounts of inhibitors. […] The beads are allowed to settle for one hr in the dark before the plates are counted in a Wallac 1450 Microbeta counter. The measured signal can be converted to activity relative to an uninhibited control (100%) and IC50 values can be calculated using the Xlfit extension to EXCEL."}, "rats": {"system": "rats", "settings": "cited from earlier work"}}, "note": "pIC50: −log10 of the molar value."}
{"smiles": "COc1cccn2nc(/C=C/c3nc(-c4ccc(C)o4)cn3C)nc12", "note": "[8-Methoxy-2-{(E)-2-[1-methyl-4-(5-methyl-furan-2-yl)-1H-imidazol-2-yl]-vinyl}-[1,2,4]triazolo[1,5-a]pyridine]", "values": [{"measurement": "pIC50", "setting": "PDE10A", "value": 6.85}]}
{"smiles": "Cc1cccn2nc(CCc3nc(-c4cccnc4)cn3C)nc12", "note": "[8-Methyl-2-[2-(1-methyl-4-pyridin-3-yl-1H-imidazol-2-yl)-ethyl]-[1,2,4]triazolo[1,5-a]pyridine]", "values": [{"measurement": "pIC50", "setting": "PDE10A", "value": 7.12}]}
{"smiles": "COc1ccc(Cc2nccc3cc(OC)c(OC)cc23)cc1OC", "note": "[Papaverine, papaverine]", "values": [{"measurement": "catalepsy on its own", "setting": "rats; papaverine alone", "value": "did not cause catalepsy"}, {"measurement": "effect on the cataleptic effect of the D2 receptor antagonist haloperidol", "setting": "rats; with haloperidol", "value": "potentiated"}]}
